Measurements as given in patent publication US8449898B2 (priority 2007, dated 2013).
Where two headings read alike, the source gives them in different places.

Assays:
[1] = tested on: Phytophthora infestans (the causal agent of tomato late blight); assay: whole plant or invertebrate; type: in vivo; details: for pest or weed control at 0.08 ppm / pest or weed control at 0.4 ppm / pest or weed control at 2 ppm / pest or weed control at 10 ppm / pest or weed control at 40 ppm / pest or weed control at 200 ppm: Phytophthora infestans; for TLB Obsd (disease control rating): Table A
[2] = tested on: Pseudoperonospora cubensis (the causal agent of cucumber downy mildew); assay: Test B: cucumber downy mildew, preventive spray on cucumber seedlings; type: in vivo
[3] = Table D, component (b) alone at 2 ppm
[4] = Table D, component (b) alone at 10 ppm
[5] = Table D, component (b) alone at 40 ppm
[6] = Table D, component (b) alone at 200 ppm
[7] = Table D, component (b) alone at 500 ppm

COc1ccc(C(=CC(=O)N2CCOCC2)c2ccc(Cl)cc2)cc1OC [dimethomorph]
pest or weed control at 0.08 ppm ([1]; read-out: TLB Obsd (disease control rating), Table B, component (b) alone 0.08 ppm): 9% | pest or weed control at 0.4 ppm ([1]; read-out: TLB Obsd (disease control rating), Table B, component (b) alone 0.4 ppm): 9% | pest or weed control at 2 ppm ([1]; read-out: TLB Obsd (disease control rating), Table B, component (b) alone 2 ppm): 47% | pest or weed control at 10 ppm ([1]; read-out: TLB Obsd (disease control rating), Table B, component (b) alone 10 ppm): 86% | pest or weed control at 40 ppm ([1]; read-out: TLB Obsd (disease control rating), Table B, component (b) alone 40 ppm): 99% | pest or weed control at 0.08 ppm ([1]; read-out: TLB Obsd (observed effect, tomato late blight), component (b) alone, 0.08 ppm): 31% | pest or weed control at 0.4 ppm ([1]; read-out: TLB Obsd (observed effect, tomato late blight), component (b) alone, 0.4 ppm): 62% | pest or weed control at 2 ppm ([1]; read-out: TLB Obsd (observed effect, tomato late blight), component (b) alone, 2 ppm): 95% | pest or weed control at 10 ppm ([1]; read-out: TLB Obsd (observed effect, tomato late blight), component (b) alone, 10 ppm): 88% | pest or weed control at 40 ppm ([1]; read-out: TLB Obsd (observed effect, tomato late blight), component (b) alone, 40 ppm): 100% | pest or weed control at 0.08 ppm ([2]; Pseudoperonospora cubensis, Table B, component (b) alone 0.08 ppm, read-out: CDM Obsd (disease control rating)): 47% | pest or weed control at 0.4 ppm ([2]; Pseudoperonospora cubensis, Table B, component (b) alone 0.4 ppm, read-out: CDM Obsd (disease control rating)): 57% | pest or weed control at 2 ppm ([2]; Pseudoperonospora cubensis, Table B, component (b) alone 2 ppm, read-out: CDM Obsd (disease control rating)): 70% | pest or weed control at 10 ppm ([2]; Pseudoperonospora cubensis, Table B, component (b) alone 10 ppm, read-out: CDM Obsd (disease control rating)): 100% | pest or weed control at 40 ppm ([2]; Pseudoperonospora cubensis, Table B, component (b) alone 40 ppm, read-out: CDM Obsd (disease control rating)): 100% | pest or weed control at 0.08 µg/mL ([2]; Pseudoperonospora cubensis, component (b) alone 0.08 ppm (Compound 1 0 ppm), read-out: CDM Obsd): 26% | pest or weed control at 0.4 µg/mL ([2]; Pseudoperonospora cubensis, component (b) alone 0.4 ppm (Compound 1 0 ppm), read-out: CDM Obsd): 26% | pest or weed control at 2 µg/mL ([2]; Pseudoperonospora cubensis, component (b) alone 2 ppm (Compound 1 0 ppm), read-out: CDM Obsd): 83% | pest or weed control at 10 µg/mL ([2]; Pseudoperonospora cubensis, component (b) alone 10 ppm (Compound 1 0 ppm), read-out: CDM Obsd): 100% | pest or weed control at 40 µg/mL ([2]; Pseudoperonospora cubensis, component (b) alone 40 ppm (Compound 1 0 ppm), read-out: CDM Obsd): 100% | pest or weed control at 0.08 ppm ([2]; Pseudoperonospora cubensis, component (b) alone, 0.08 ppm, read-out: CDM Obsd (observed effect, cucumber downy mildew)): 52% | pest or weed control at 0.4 ppm ([2]; Pseudoperonospora cubensis, component (b) alone, 0.4 ppm, read-out: CDM Obsd (observed effect, cucumber downy mildew)): 54% | pest or weed control at 2 ppm ([2]; Pseudoperonospora cubensis, component (b) alone, 2 ppm, read-out: CDM Obsd (observed effect, cucumber downy mildew)): 88% | pest or weed control at 10 ppm ([2]; Pseudoperonospora cubensis, component (b) alone, 10 ppm, read-out: CDM Obsd (observed effect, cucumber downy mildew)): 100% | pest or weed control at 40 ppm ([2]; Pseudoperonospora cubensis, component (b) alone, 40 ppm, read-out: CDM Obsd (observed effect, cucumber downy mildew)): 100%

C#CCOc1ccc(CCNC(=O)C(OCC#C)c2ccc(Cl)cc2)cc1OC (centres unmarked) [mandipropamid]
TLB Obsd ([1]; Table E, component (b) alone at 0.016 ppm): 26% | TLB Obsd ([1]; Table E, component (b) alone at 0.08 ppm): 33% | TLB Obsd ([1]; Table E, component (b) alone at 0.4 ppm): 88% | TLB Obsd ([1]; Table E, component (b) alone at 2 ppm): 100% | TLB Obsd ([1]; Table E, component (b) alone at 10 ppm): 100% | TLB Obsd (observed effect, tomato late blight) ([1]; component (b) alone, 0.08 ppm): 80 | TLB Obsd (observed effect, tomato late blight) ([1]; component (b) alone, 0.4 ppm): 97 | TLB Obsd (observed effect, tomato late blight) ([1]; component (b) alone, 2 ppm): 99 | TLB Obsd (observed effect, tomato late blight) ([1]; component (b) alone, 10 ppm): 100 | TLB Obsd (observed effect, tomato late blight) ([1]; component (b) alone, 40 ppm): 100 | CDM Obsd ([2]; Table F, component (b) alone at 0.016 ppm): 33% | CDM Obsd ([2]; Table F, component (b) alone at 0.08 ppm): 97% | CDM Obsd ([2]; Table F, component (b) alone at 0.4 ppm): 100% | CDM Obsd ([2]; Table F, component (b) alone at 2 ppm): 100% | CDM Obsd ([2]; Table F, component (b) alone at 10 ppm): 100% | CDM Obsd (observed effect, cucumber downy mildew) ([2]; component (b) alone, 0.08 ppm): 86 | CDM Obsd (observed effect, cucumber downy mildew) ([2]; component (b) alone, 0.4 ppm): 100 | CDM Obsd (observed effect, cucumber downy mildew) ([2]; component (b) alone, 2 ppm): 100 | CDM Obsd (observed effect, cucumber downy mildew) ([2]; component (b) alone, 10 ppm): 100 | CDM Obsd (observed effect, cucumber downy mildew) ([2]; component (b) alone, 40 ppm): 100

CC1CCN(c2c(-c3c(F)cc(F)cc3F)c(Cl)nc3ncnn23)CC1 [BAS600, 5-chloro-6-(2,4,6-trifluorophenyl)-7-(4-methylpiperidin-1-yl)[1,2,4]triazolo[1,5-α]pyrimidine]
TLB Obsd [1, 3]: 26% | TLB Obsd [1, 4]: 6% | TLB Obsd [1, 5]: 56% | TLB Obsd [1, 6]: 20% | TLB Obsd [1, 7]: 12% | TLB Obsd ([1]; component (b) alone, 2 ppm): 7% | TLB Obsd ([1]; component (b) alone, 10 ppm): 0% | TLB Obsd ([1]; component (b) alone, 40 ppm): 15% | TLB Obsd ([1]; component (b) alone, 200 ppm): 30% | TLB Obsd ([1]; component (b) alone, 500 ppm): 15% | CDM Obsd [2, 3]: 47% | CDM Obsd [2, 4]: 99% | CDM Obsd [2, 5]: 100% | CDM Obsd [2, 6]: 100% | CDM Obsd [2, 7]: 100% | CDM Obsd ([2]; component (b) alone 2 ppm (Compound 1 0 ppm)): 0% | CDM Obsd ([2]; component (b) alone 10 ppm (Compound 1 0 ppm)): 72% | CDM Obsd ([2]; component (b) alone 40 ppm (Compound 1 0 ppm)): 100% | CDM Obsd ([2]; component (b) alone 200 ppm (Compound 1 0 ppm)): 100% | CDM Obsd ([2]; component (b) alone, 2 ppm): 0% | CDM Obsd ([2]; component (b) alone, 10 ppm): 99% | CDM Obsd ([2]; component (b) alone, 40 ppm): 100% | CDM Obsd ([2]; component (b) alone, 200 ppm): 100% | CDM Obsd ([2]; component (b) alone, 500 ppm): 100%

CCCOc1nc2ccc(I)cc2c(=O)n1CCC [proquinazid]
TLB Obsd (disease control rating) ([1]; component (b) alone 0.4 ppm): 0% | TLB Obsd (disease control rating) ([1]; component (b) alone 2 ppm): 0% | TLB Obsd (disease control rating) ([1]; component (b) alone 10 ppm): 0% | TLB Obsd (disease control rating) ([1]; component (b) alone 40 ppm): 24% | TLB Obsd (disease control rating) ([1]; component (b) alone 200 ppm): 0% | TLB Obsd ([1]; component (b) alone, 0.04 ppm): 17% | TLB Obsd ([1]; component (b) alone, 2 ppm): 0% | TLB Obsd ([1]; component (b) alone, 10 ppm): 8% | TLB Obsd ([1]; component (b) alone, 40 ppm): 8% | TLB Obsd ([1]; component (b) alone, 200 ppm): 17% | CDM Obsd (disease control rating) ([2]; Table A, component (b) alone 0.4 ppm): 47% | CDM Obsd (disease control rating) ([2]; Table A, component (b) alone 2 ppm): 47% | CDM Obsd (disease control rating) ([2]; Table A, component (b) alone 10 ppm): 47% | CDM Obsd (disease control rating) ([2]; Table A, component (b) alone 40 ppm): 47% | CDM Obsd (disease control rating) ([2]; Table A, component (b) alone 200 ppm): 47% | CDM Obsd ([2]; Table G, component (b) alone at 0.4 ppm): 26% | CDM Obsd ([2]; Table G, component (b) alone at 2 ppm): 26% | CDM Obsd ([2]; Table G, component (b) alone at 10 ppm): 26% | CDM Obsd ([2]; Table G, component (b) alone at 40 ppm): 26% | CDM Obsd ([2]; Table G, component (b) alone at 200 ppm): 26% | CDM Obsd ([2]; component (b) alone, 0.04 ppm): 0% | CDM Obsd ([2]; component (b) alone, 2 ppm): 0% | CDM Obsd ([2]; component (b) alone, 10 ppm): 0% | CDM Obsd ([2]; component (b) alone, 40 ppm): 0% | CDM Obsd ([2]; component (b) alone, 200 ppm): 0%

CC(C)CC(C)c1sccc1NC(=O)c1cn(C)nc1C(F)(F)F (centres unmarked) [penthiopyrad]
pest or weed control at 0.4 ppm ([1]; read-out: TLB Obsd (disease control rating), Table A, component (b) alone 0.4 ppm): 0% | pest or weed control at 2 ppm ([1]; read-out: TLB Obsd (disease control rating), Table A, component (b) alone 2 ppm): 0% | pest or weed control at 10 ppm ([1]; read-out: TLB Obsd (disease control rating), Table A, component (b) alone 10 ppm): 9% | pest or weed control at 40 ppm ([1]; read-out: TLB Obsd (disease control rating), Table A, component (b) alone 40 ppm): 17% | pest or weed control at 200 ppm ([1]; read-out: TLB Obsd (disease control rating), Table A, component (b) alone 200 ppm): 17% | pest or weed control at 0.4 ppm ([1]; read-out: TLB Obsd, component (b) alone, 0.4 ppm): 0% | pest or weed control at 2 ppm ([1]; read-out: TLB Obsd, component (b) alone, 2 ppm): 22% | pest or weed control at 10 ppm ([1]; read-out: TLB Obsd, component (b) alone, 10 ppm): 7% | pest or weed control at 40 ppm ([1]; read-out: TLB Obsd, component (b) alone, 40 ppm): 15% | pest or weed control at 200 ppm ([1]; read-out: TLB Obsd, component (b) alone, 200 ppm): 7% | pest or weed control at 0.4 ppm ([2]; Pseudoperonospora cubensis, Table A, component (b) alone 0.4 ppm, read-out: CDM Obsd (disease control rating)): 47% | pest or weed control at 2 ppm ([2]; Pseudoperonospora cubensis, Table A, component (b) alone 2 ppm, read-out: CDM Obsd (disease control rating)): 47% | pest or weed control at 10 ppm ([2]; Pseudoperonospora cubensis, Table A, component (b) alone 10 ppm, read-out: CDM Obsd (disease control rating)): 47% | pest or weed control at 40 ppm ([2]; Pseudoperonospora cubensis, Table A, component (b) alone 40 ppm, read-out: CDM Obsd (disease control rating)): 47% | pest or weed control at 200 ppm ([2]; Pseudoperonospora cubensis, Table A, component (b) alone 200 ppm, read-out: CDM Obsd (disease control rating)): 47% | pest or weed control at 0.4 ppm ([2]; Pseudoperonospora cubensis, Table G, component (b) alone at 0.4 ppm, read-out: CDM Obsd): 43% | pest or weed control at 2 ppm ([2]; Pseudoperonospora cubensis, Table G, component (b) alone at 2 ppm, read-out: CDM Obsd): 33% | pest or weed control at 10 ppm ([2]; Pseudoperonospora cubensis, Table G, component (b) alone at 10 ppm, read-out: CDM Obsd): 26% | pest or weed control at 40 ppm ([2]; Pseudoperonospora cubensis, Table G, component (b) alone at 40 ppm, read-out: CDM Obsd): 26% | pest or weed control at 200 ppm ([2]; Pseudoperonospora cubensis, Table G, component (b) alone at 200 ppm, read-out: CDM Obsd): 47% | pest or weed control at 0.4 ppm ([2]; Pseudoperonospora cubensis, component (b) alone, 0.4 ppm, read-out: CDM Obsd): 0% | pest or weed control at 2 ppm ([2]; Pseudoperonospora cubensis, component (b) alone, 2 ppm, read-out: CDM Obsd): 0% | pest or weed control at 10 ppm ([2]; Pseudoperonospora cubensis, component (b) alone, 10 ppm, read-out: CDM Obsd): 0% | pest or weed control at 40 ppm ([2]; Pseudoperonospora cubensis, component (b) alone, 40 ppm, read-out: CDM Obsd): 0% | pest or weed control at 200 ppm ([2]; Pseudoperonospora cubensis, component (b) alone, 200 ppm, read-out: CDM Obsd): 16%
